Several values for one entry are separate records, joined by “and”; a condition that tells them apart may be missing. Identical values can stand only once.
How the values were obtained:
Phakopsora pachyrhizi [1] = assay: Glasshouse pot trial: efficacy on soybean rust on soybean (Glycine max), visual estimation of degree of infection on leaves; assay type: in vivo
Experimental: (§1) In the tables presented below, the following terms have the following meaning:
Glasshouse pot trials were conducted to evaluate the effect and efficacy of silthiofam on soybean rust disease on soybean (Glycine max).
The trial was divided in 11 treatments. In 4 of the treatments, silthiofam was applied in different amounts.
(§2) Silthiofam compositions used in this trial were prepared from the suspension concentrate containing 125 g/L of silthiofam, diluted with water to predetermined concentration and sprayed on the plants in the predetermined amounts.
In two of the treatments, silthiofam was applied in combination with additional ingredients.
First combination was of silthiofam and chitosan, wherein silthiofam was applied in an amount of 250 g/ha on the plant first and chitosan was applied subsequently in an amount of 200 g/ha.
Second combination was a combination of silthiofam and tagatose, wherein silthiofam was applied in an amount of 250 g/ha simultaneously with tagatose in an amount of 200 g/ha.
Further 6 treatments were current market available treatments of soybean rust applied in the label prescribed dose, wherein the compositions used were prepared from commercially available products prepared according to the respective label instructions and sprayed on the plants.
One treatment of the trial consisted of fungi inoculated plants which received no treatment.
Soybean plants were treated two times with silthiofam and other treatments. First treatment was applied when soybean plants reached stage BBCH16 and the second treatment was applied when soybean plants reached stage BBCH61. Growth stages were defined according to Compendium of Growth Stage Identification Keys for Mono- and Dicotyledonous Plants, Extended BBCH scale, 2nd Edition 1997, ISBN 3-9520749-3-4.
After silthiofam and other treatments were applied first time, plants were inoculated with Phakopsora pachyrhizi spores and evaluation of leaves condition and disease spread was done every 7 days.
(§3) Method used for evaluation of disease spread was visual estimation of degree of infection on leaves.
The experimental design of the pot trial was randomized design with 4 pot replications per treatment applied, wherein six soybean plants were planted per pot.
Treatments were the following:
Treatment 1: Plant inoculated with P. pachyrhizi, no treatment applied
Treatment 2: Treatment with flutriafol and azoxystrobin mixture, applied in concentration of 31.25 g flutriafol/ha and 37.5 g azoxystrobin/ha
Treatment 3: Silthiofam treatment applied in 250 g silthiofam/ha
Treatment 4: Silthiofam treatment applied in 500 g silthiofam/ha
Treatment 5: Silthiofam treatment applied in 250 g silthiofam/ha and 200 g/ha of tagatose
Treatment 6: Silthiofam treatment applied in 250 g silthiofam/ha and 200 g/ha of chitosan
Treatment 7: Mancozeb applied in 1.68 kg mancozeb/ha
Treatment 8: Chlorothalonil applied in 626.4 g chlorothalonil/ha
Treatment 9: Azoxystrobin applied in 37.5 g azoxystrobin/ha
Treatment 10: Boscalid applied in 294 g boscalid/ha
Treatment 11: Prothioconazole and tebuconazole mixture applied as 42 g prothioconazole/ha and 84 g tebuconazole/ha

soybean rust disease = assay: Field trial: efficacy on naturally infected soybean, visual estimation of degree of infection on leaves; assay type: in vivo, Glycine max
Experimental: as §1
Field trial was conducted to evaluate the effect and efficacy of silthiofam on soybean rust disease on soybean (Glycine max) wherein plants were naturally infected by the disease.
The trial was divided in the following […]:
one treatment where plants were left untreated and in which natural progression of the disease can be observed;
two treatments with silthiofam alone in different dosage amounts;
and four treatments where silthiofam was applied with other compounds, namely tagatose and chitosan in different dosage ratios.
Each treatment was applied on a plot of 6 ft*30 ft in size and was repeated in 4 replicates.
as §2
For each treatment, two applications of respective treatment were made with 19 days interval between. First application was made when soybean plant reached stage BBCH 64, and the second one when plant reached stage BBCH 73. Growth stages were defined according to Compendium of Growth Stage Identification Keys for Mono- and Dicotyledonous Plants, Extended BBCH scale, 2nd Edition 1997, ISBN 3-9520749-3-4.
as §3

Phakopsora pachyrhizi [2] = assay: Glasshouse pot trial: efficacy on soybean rust on soybean (Glycine max), visual estimation of degree of infection on leaves; assay type: in vivo; settings: general statement; Phakopsora pachyrhizi and P. meibomiae

C=CCNC(=O)c1c([Si](C)(C)C)sc(C)c1C [Silthiofam, N-allyl-4,5-dimethyl-2-(trimethylsilyl)thiophene-3-carboxamide]
% efficacy (Phakopsora pachyrhizi [1]; silthiofam 250 g/ha, 7/7 d after first/last application, 19 d after planting, LEALOW): 71.5% and 90.9% and 93.6% and 88.9%
% efficacy (Phakopsora pachyrhizi [1]; silthiofam 250 g/ha, 7/7 d after first/last application, 19 d after planting, LEAMID): 93.4% and 100.0% and 81.9% and 85.0%
% efficacy (Phakopsora pachyrhizi [1]; silthiofam 250 g/ha, 7/7 d after first/last application, 19 d after planting, LEAUPP): 100.0%
% efficacy (Phakopsora pachyrhizi [1]; silthiofam 250 g/ha, 14/14 d after first/last application, 26 d after planting, LEALOW): 89.0% and 82.0% and 84.7% and 84.1%
% efficacy (Phakopsora pachyrhizi [1]; silthiofam 250 g/ha, 14/14 d after first/last application, 26 d after planting, LEAMID): 95.0% and 91.2% and 92.0% and 89.4%
% efficacy (Phakopsora pachyrhizi [1]; silthiofam 250 g/ha, 14/14 d after first/last application, 26 d after planting, LEAUPP): 100.0%
% efficacy (Phakopsora pachyrhizi [1]; silthiofam 250 g/ha, 21/21 d after first/last application, 33 d after planting, LEALOW): 78.0% and 76.0% and 82.0% and 80.0%
% efficacy (Phakopsora pachyrhizi [1]; silthiofam 250 g/ha, 21/21 d after first/last application, 33 d after planting, LEAMID): 92.0% and 89.0% and 90.0% and 88.0%
% efficacy (Phakopsora pachyrhizi [1]; silthiofam 250 g/ha, 21/21 d after first/last application, 33 d after planting, LEAUPP): 100.0%
% efficacy (Phakopsora pachyrhizi [1]; silthiofam 250 g/ha, 28/7 d after first/last application, 40 d after planting, LEALOW): 82.0% and 80.0% and 84.0%
% efficacy (Phakopsora pachyrhizi [1]; silthiofam 250 g/ha, 28/7 d after first/last application, 40 d after planting, LEAMID): 92.0% and 88.0% and 90.0%
% efficacy (Phakopsora pachyrhizi [1]; silthiofam 250 g/ha, 28/7 d after first/last application, 40 d after planting, LEAUPP): 100.0%
% efficacy (Phakopsora pachyrhizi [1]; silthiofam 250 g/ha, 35/14 d after first/last application, 47 d after planting, LEAMID): 78.0% and 82.0% and 80.0% and 84.0%
% efficacy (Phakopsora pachyrhizi [1]; silthiofam 250 g/ha, 35/14 d after first/last application, 47 d after planting, LEAUPP): 94.5% and 98.0% and 95.5% and 92.9%
% efficacy (Phakopsora pachyrhizi [1]; silthiofam 250 g/ha, 42/21 d after first/last application, 54 d after planting, LEAMID): 48.0% and 54.0% and 59.0% and 52.0%
% efficacy (Phakopsora pachyrhizi [1]; silthiofam 250 g/ha, 42/21 d after first/last application, 54 d after planting, LEAUPP): 86.0% and 85.0% and 89.0%
% efficacy (Phakopsora pachyrhizi [1]; silthiofam 500 g/ha, 7/7 d after first/last application, 19 d after planting, LEALOW): 85.8% and 95.5% and 93.6% and 97.3%
% efficacy (Phakopsora pachyrhizi [1]; silthiofam 500 g/ha, 7/7 d after first/last application, 19 d after planting, LEAMID): 93.4% and 94.5% and 100.0%
% efficacy (Phakopsora pachyrhizi [1]; silthiofam 500 g/ha, 7/7 d after first/last application, 19 d after planting, LEAUPP): 100.0%
% efficacy (Phakopsora pachyrhizi [1]; silthiofam 500 g/ha, 14/14 d after first/last application, 26 d after planting, LEALOW): 92.0% and 90.0% and 94.7% and 91.9%
% efficacy (Phakopsora pachyrhizi [1]; silthiofam 500 g/ha, 14/14 d after first/last application, 26 d after planting, LEAMID): 99.0% and 96.8% and 97.9%
% efficacy (Phakopsora pachyrhizi [1]; silthiofam 500 g/ha, 14/14 d after first/last application, 26 d after planting, LEAUPP): 100.0%
% efficacy (Phakopsora pachyrhizi [1]; silthiofam 500 g/ha, 21/21 d after first/last application, 33 d after planting, LEALOW): 89.0% and 86.0% and 92.0%
% efficacy (Phakopsora pachyrhizi [1]; silthiofam 500 g/ha, 21/21 d after first/last application, 33 d after planting, LEAMID): 96.0% and 95.0% and 97.0%
% efficacy (Phakopsora pachyrhizi [1]; silthiofam 500 g/ha, 21/21 d after first/last application, 33 d after planting, LEAUPP): 100.0%
% efficacy (Phakopsora pachyrhizi [1]; silthiofam 500 g/ha, 28/7 d after first/last application, 40 d after planting, LEALOW): 88.0% and 90.0% and 85.0%
% efficacy (Phakopsora pachyrhizi [1]; silthiofam 500 g/ha, 28/7 d after first/last application, 40 d after planting, LEAMID): 95.0% and 93.0% and 92.0%
% efficacy (Phakopsora pachyrhizi [1]; silthiofam 500 g/ha, 28/7 d after first/last application, 40 d after planting, LEAUPP): 100.0%
% efficacy (Phakopsora pachyrhizi [1]; silthiofam 500 g/ha, 35/14 d after first/last application, 47 d after planting, LEAMID): 92.0% and 89.0% and 90.0% and 86.0%
% efficacy (Phakopsora pachyrhizi [1]; silthiofam 500 g/ha, 35/14 d after first/last application, 47 d after planting, LEAUPP): 98.9% and 100.0% and 90.9%
% efficacy (Phakopsora pachyrhizi [1]; silthiofam 500 g/ha, 42/21 d after first/last application, 54 d after planting, LEAMID): 79.0% and 72.0% and 80.0% and 82.0%
% efficacy (Phakopsora pachyrhizi [1]; silthiofam 500 g/ha, 42/21 d after first/last application, 54 d after planting, LEAUPP): 92.0% and 90.0% and 95.0% and 93.0%
% efficacy (soybean rust disease; silthiofam 125 g/ha, 14/14 d after first/last application, LEALOW): 88.9% and 84.3% and 63.4% and 77.3%
% efficacy (soybean rust disease; silthiofam 125 g/ha, 14/14 d after first/last application, LEAMID): 95.5% and 92.9% and 95.0% and 90.9%
% efficacy (soybean rust disease; silthiofam 125 g/ha, 14/14 d after first/last application, LEAUPP): 0.0%
% efficacy (soybean rust disease; silthiofam 125 g/ha, 20/1 d after first/last application, LEALOW): 68.2% and 56.0% and 64.1% and 69.1%
% efficacy (soybean rust disease; silthiofam 125 g/ha, 20/1 d after first/last application, LEAMID): 83.3% and 78.2% and 80.4%
% efficacy (soybean rust disease; silthiofam 125 g/ha, 20/1 d after first/last application, LEAUPP): 90.9% and 88.9% and 100.0% and 94.4%
% efficacy (soybean rust disease; silthiofam 125 g/ha, 27/8 d after first/last application, LEALOW): 35.00% and 42.00% and 36.00%
% efficacy (soybean rust disease; silthiofam 125 g/ha, 27/8 d after first/last application, LEAMID): 77.9% and 75.0% and 78.6% and 80.3%
% efficacy (soybean rust disease; silthiofam 125 g/ha, 27/8 d after first/last application, LEAUPP): 89.3% and 85.7% and 93.3% and 95.2%
% efficacy (soybean rust disease; silthiofam 125 g/ha, 34/15 d after first/last application, LEALOW): 45.0% and 35.0% and 52.0% and 55.0%
% efficacy (soybean rust disease; silthiofam 125 g/ha, 34/15 d after first/last application, LEAMID): 72.0% and 67.0% and 72.7%
% efficacy (soybean rust disease; silthiofam 125 g/ha, 34/15 d after first/last application, LEAUPP): 90.9% and 86.2% and 92.2%
% efficacy (soybean rust disease; silthiofam 250 g/ha, 14/14 d after first/last application, LEALOW): 66.7% and 56.9% and 73.2% and 59.1%
% efficacy (soybean rust disease; silthiofam 250 g/ha, 14/14 d after first/last application, LEAMID): 81.8% and 78.6% and 70.0% and 63.6%
% efficacy (soybean rust disease; silthiofam 250 g/ha, 14/14 d after first/last application, LEAUPP): 0.0%
% efficacy (soybean rust disease; silthiofam 250 g/ha, 20/1 d after first/last application, LEALOW): 60.2% and 45.3% and 57.7% and 65.4%
% efficacy (soybean rust disease; silthiofam 250 g/ha, 20/1 d after first/last application, LEAMID): 68.8% and 67.3% and 78.4%
% efficacy (soybean rust disease; silthiofam 250 g/ha, 20/1 d after first/last application, LEAUPP): 81.8% and 83.3% and 90.0% and 100.0%
% efficacy (soybean rust disease; silthiofam 250 g/ha, 27/8 d after first/last application, LEALOW): 55.00% and 65.00% and 58.00% and 48.00%
% efficacy (soybean rust disease; silthiofam 250 g/ha, 27/8 d after first/last application, LEAMID): 61.8% and 61.1% and 68.6% and 62.1%
% efficacy (soybean rust disease; silthiofam 250 g/ha, 27/8 d after first/last application, LEAUPP): 82.1% and 77.1% and 83.3% and 88.1%
% efficacy (soybean rust disease; silthiofam 250 g/ha, 34/15 d after first/last application, LEALOW): 25.0% and 22.0% and 30.0% and 35.0%
% efficacy (soybean rust disease; silthiofam 250 g/ha, 34/15 d after first/last application, LEAMID): 62.0% and 58.0% and 56.8%
% efficacy (soybean rust disease; silthiofam 250 g/ha, 34/15 d after first/last application, LEAUPP): 67.3% and 62.1% and 54.5% and 57.8%
activity against soybean rust causing fungi (Phakopsora pachyrhizi [2]): high activity

Source: US11197479B2, “Use of silthiofam for the treatment of soybean rust” (priority 2018, dated 2021)
